Data set [1] deals with Diabrotica undecimpunctata. Description: Pesticidal test against Diabrotica undecimpunctata, treated filter paper (Test Example 4). The format is in vivo, Diabrotica undecimpunctata (southern-corn rootworm). As to conditions: 50 ppm test liquid (Formulation Example 1), 1 ml on filter paper; 30 to 50 eggs and one germinated corn seed; 25° C. The protocol:
One germinated seed of corn and 30 to 50 eggs of Diabrotica undecimpunctata (southern-corn rootworm) was placed on the filter paper in the polyethylene cup, which was then kept covered and left in a room at 25° C. On the 6th day after, the number of surviving larvae of Diabrotica undecimpunctata was examined.

In a further data set the test system is Musca domestics. Description: Pesticidal test against Musca domestics, treated filter paper with sucrose bait (Test Example 5). Type of data set: in vivo. Conditions: 500 ppm test liquid (Formulation Example 5), 0.7 ml on filter paper, ten female adults, after 24 hours. Here is the method: Ten female adults of Musca domestics (house fly) were set free in the polyethylene cup, which was then kept covered. After 24 hours, their survival was examined to determine the mortality.

Another data set deals with German cockroach. Description: Pesticidal test against German cockroach, treated filter paper with sucrose bait (Test Example 6). Type of data set: in vivo. Conditions: Blattella germanica, 144 h; 500 ppm test liquid (Formulation Example 5), 0.7 ml on filter paper; two male adults; after 6 days. An excerpt:
Two male adults of German cockroach (Blattalla germanica) were set free in the polyethylene cup, which was then kept covered. After 6 days, their survival was examined to determine the mortality.

For the next data set, the system named is Cullex pipiens pallens. Description: whole plant or invertebrate. As to conditions: 24 h.

Structures are written as SMILES.

Usually melting point stands for the temperature, or range, at which the solid turns liquid. The mortality is the share of the test organisms that died. Read a high mortality as a strong lethal effect.

Experimental for Cullex pipiens pallens: In 100 ml of ion-exchanged water, the test liquid had been prepared as described above, was added dropwise in an amount of 0.7 ml (the concentration of active ingredient was 3.5 ppm). Twenty final-instar larvae of Cullex pipiens pallens (common mosquito) were set free in the solution. After 1 days, their survival was examined to determine the mortality.

`CCC(C#N)(C#N)Cc1ccc(Cl)cc1`: the melting point was determined as 70.9 °C.

Consider `C=CCC(C#N)(C#N)Cc1ccc(Cl)cc1` [Compound 1, 2-allyl-2-(4-chlorobenzyl)malononitrile], for which the “number of surviving pests on the 6th day after” value (shortened to “number of surviving pests”) in data set [1] came to 0. Moreover, the mortality at 500 ppm with Musca domestics and with German cockroach was 100% in each case. The same compound displayed a mortality at 3.5 µg/mL in the data set with Cullex pipiens pallens of 100%.

Take `C=CCC(C#N)(C#N)C(C)(C)c1ccc(Cl)cc1` [Compound 2, 2-allyl-2-(1-(4-chlorophenyl)-1-methylethyl)malononitrile]: the “number of surviving pests” value in data set [1] is given as 0. In the data set on German cockroach, the mortality at 500 ppm came out at 100%. The mortality at 3.5 µg/mL in the data set with Cullex pipiens pallens was 100%.

Consider `C=CCC(C#N)(C#N)C(c1ccc(Cl)cc1)C(C)C` (stereo not drawn) [Compound 3, 2-allyl-2-(1-(4-chlorophenyl)-2-methylpropyl)malononitrile], for which the “number of surviving pests” value in data set [1] amounted to 0. The mortality at 500 ppm in the data set on Musca domestics and in the data set with German cockroach was 100% each time. In addition, the mortality at 3.5 µg/mL with Cullex pipiens pallens was determined as 100%.

`C=CCCC(C#N)(C#N)Cc1ccc(Cl)cc1` [Compound 4, 2-(3-butenyl)-2-(4-chlorobenzyl)malononitrile]: the “number of surviving pests” value in data set [1] worked out at 0. The mortality at 500 ppm with Musca domestics and with German cockroach was 100% each time. For the same compound, the mortality at 3.5 µg/mL in the data set with Cullex pipiens pallens worked out at 100%.

On to `C=CCC(C#N)(C#N)Cc1ccc(C(F)(F)F)cc1` [Compound 5, 2-allyl-2-(4-(trifluoromethyl)benzyl)malononitrile], for which, in data set [1], the “number of surviving pests” value was 0. In the data set with German cockroach, the mortality at 500 ppm worked out at 100%. In the data set on Cullex pipiens pallens, the mortality at 3.5 µg/mL worked out at 100%.

In the case of `N#CC(C#N)(Cc1ccc(Cl)cc1)C1CCCCC1` [Compound 9, 2-(4-chlorobenzyl)-2-cyclohexylmalononitrile], in data set [1], the “number of surviving pests” value came to 0. In the data set with German cockroach, this compound gave a mortality at 500 ppm of 100%. In the data set on Cullex pipiens pallens, this compound displayed a mortality at 3.5 µg/mL of 100%.

Turning to `C=CCCC(C#N)(C#N)C(C)c1ccc(Cl)cc1` (stereo not drawn) [Compound 10, 2-(3-butenyl)-2-(1-(4-chlorophenyl)ethyl)malononitrile], the “number of surviving pests” value in data set [1] is on record as 0. The mortality at 500 ppm in the data set with Musca domestics and in the data set on German cockroach was 100% each time. Moreover, the mortality at 3.5 µg/mL in the data set on Cullex pipiens pallens is 100%.

On to `C=CCC(C#N)(C#N)Cc1ccc(OC(F)(F)F)cc1` [Compound 11, 2-allyl-2-(4-(trifluoromethoxy)benzyl)malononitrile], for which, in data set [1], the “number of surviving pests” value stood at 0. In addition, the mortality at 500 ppm in the data set on Musca domestics and in the data set with German cockroach was 100% throughout. Further, the mortality at 3.5 µg/mL in the data set with Cullex pipiens pallens was 100%.

As for `C=CCCC(C#N)(C#N)C(c1ccc(OC(F)(F)F)cc1)C(C)C` (stereo not drawn) [Compound 12], in data set [1], the “number of surviving pests” value was determined as 0.

`C=CCC(C#N)(C#N)Cc1ccc(C#N)cc1` [Compound 14, 2-allyl-2-(4-cyanobenzyl)malononitrile] gave a melting point of 81.9 °C.

Regarding `C=CCCC(C#N)(C#N)C(C)c1ccc(OC(F)(F)F)cc1` (stereo not drawn) [Compound 16, 2-(3-butenyl)-2-(1-(4-(trifluoromethoxy)phenyl)ethyl)malononitrile], the “number of surviving pests” value in data set [1] turned out to be 0. The same compound yielded a mortality at 500 ppm in the data set with German cockroach of 100%. In the data set on Cullex pipiens pallens, this compound showed a mortality at 3.5 µg/mL of 100%.

Take `CC(C)CC(C#N)(C#N)Cc1ccc(Cl)cc1` [Compound 19, 2-(4-chlorobenzyl)-2-isobutylmalononitrile]: in data set [1], the “number of surviving pests” value stood at 0. In addition, the mortality at 3.5 µg/mL in the data set with Cullex pipiens pallens turned out to be 100%.

Take `C=CCCCC(C#N)(C#N)Cc1ccc(Cl)cc1` [Compound 21, 2-(4-chlorobenzyl)-2-(4-pentenyl)malononitrile]: in data set [1], the “number of surviving pests” value worked out at 0. The mortality at 3.5 µg/mL in the data set on Cullex pipiens pallens is 100%.

As to `C=CC(C)C(C#N)(C#N)Cc1ccc(Cl)cc1` (stereo not drawn) [Compound 22, 2-(4-chlorobenzyl)-2-(1-methyl-2-propenyl)malononitrile], in data set [1], the “number of surviving pests” value is reported as 0. The compound further displayed a mortality at 500 ppm with Musca domestics of 100%. The same compound registered a mortality at 3.5 µg/mL in the data set with Cullex pipiens pallens of 100%.

Take `C=CCC(C#N)(C#N)Cc1ccc(Cl)c(Cl)c1` [Compound 23, 2-allyl-2-(3,4-dichlorobenzyl)malononitrile]: in data set [1], the “number of surviving pests” value is listed as 0. For the same compound, the mortality at 500 ppm in the data set with German cockroach was found to be 100%. Further, in the data set on Cullex pipiens pallens, the mortality at 3.5 µg/mL came to 100%.

As for `C=CCC(C#N)(C#N)Cc1ccc(Cl)cc1Cl` [Compound 24, 2-allyl-2-(2,4-dichlorobenzyl)malononitrile], in data set [1], the “number of surviving pests” value was 0. Besides, the mortality at 500 ppm in the data set with Musca domestics amounted to 100%. The mortality at 3.5 µg/mL with Cullex pipiens pallens was 100%.

Regarding `C=CCCC(C#N)(C#N)C(c1ccc(Cl)cc1)C(C)C` (stereo not drawn) [Compound 26, 2-(3-butenyl)-2-(1-(4-chlorophenyl)-2-methylpropyl)malononitrile], the “number of surviving pests” value in data set [1] stood at 0. For the same compound, in the data set with Cullex pipiens pallens, the mortality at 3.5 µg/mL was found to be 100%.

In the case of `C=CCC(C#N)(C#N)Cc1ccc([N+](=O)[O-])cc1` [Compound 50, 2-allyl-2-(4-nitrobenzyl)malononitrile], the melting point was 94.2 °C.

Regarding `C=CCC(C#N)(C#N)Cc1c(F)c(F)c(F)c(F)c1F` [Compound 62, 2-allyl-2-(2,3,4,5,6-pentafluorobenzyl)malononitrile], the melting point came to 78.2 °C.

`C=CCC(C#N)(C#N)C(c1cccc(Cl)c1)C(C)C` (stereo not drawn) [Compound 66, 2-allyl-2-(1-(3-chlorophenyl)-2-methylpropyl)malononitrile]: in data set [1], the “number of surviving pests” value is reported as 0. Also, the mortality at 500 ppm with Musca domestics came out at 100%. This compound gave a mortality at 3.5 µg/mL in the data set with Cullex pipiens pallens of 100%.

The compound `CC/C=C\CCC(C#N)(C#N)Cc1ccc(Cl)cc1` [Compound 73, 2-(4-chlorobenzyl)-2-((Z)-3-hexenyl)malononitrile] gave a melting point of 44.8 °C.

With `C=CCC(C#N)(C#N)C(C)c1ccc(Cl)cc1` (stereo not drawn) [Compound 74, 2-allyl-2-(1-(4-chlorophenyl)ethyl)malononitrile], the “number of surviving pests” value in data set [1] is on record as 0. The mortality at 500 ppm with Musca domestics and with German cockroach was 100% in each case. The compound further gave a mortality at 3.5 µg/mL in the data set with Cullex pipiens pallens of 100%.

With `C=CCCCC(C#N)(C#N)C(C)c1ccc(Cl)cc1` (stereo not drawn) [Compound 76, 2-(1-(4-chlorophenyl)ethyl)-2-(4-pentenyl)malononitrile], the “number of surviving pests” value in data set [1] is 0. Moreover, in the data set with Cullex pipiens pallens, the mortality at 3.5 µg/mL worked out at 100%.

As for `C=CCC(C#N)(C#N)Cc1ccc(C)cc1` [Compound 77, 2-allyl-2-(4-methylbenzyl)malononitrile], the melting point came to 74.5 °C.
